Converted amounts (≈) assume the structure as drawn. “And” between values parts separate entries of the source, which are not always exact repeats. Identical values can stand only once. Like-named read-outs stand apart in the source and are kept apart here. Marks after values point to notes of the source that are not given here.
Experiments:
[1] = test system: M. tuberculosis H37Rv; assay: microbe, parasite or virus in culture; assay type: cell-based; settings: Mycobacterium tuberculosis, read-out: MIC (µM) H37Rv
[2] = test system: M. abscessus (ATCC 19977); assay: MIC determination against NTM strains, microbroth dilution; assay type: cell-based, Mycobacterium abscessus; settings: Mycobacteroides abscessus
[3] = test system: M. avium (ATCC 25291); assay: as above; assay type: cell-based; settings: Mycobacterium avium, ATCC25291; NTM strain
[4] = test system: M. avium complex (ATCC 700,891 MAC 101); assay: Ex vivo efficacy in infected THP-1 macrophages; assay type: cell-based; settings: Mycobacterium avium
[5] = test system: M. abscessus (ATCC 19977); assay: Ex vivo efficacy in infected THP-1 macrophages; assay type: cell-based, Mycobacterium abscessus; settings: Mycobacteroides abscessus
[6] = test system: M. tuberculosis H37Rv; settings: compound 1 included as reference; ref [26],[27],[28]; cited from earlier work
[7] = test system: H37Rv (katG^del); settings: compound 1 included as reference; ref [26],[27],[28]; cited from earlier work
[8] = test system: M. abscessus (ATCC 19977); settings: compound 1 included as reference; ref [26],[27],[28]; cited from earlier work
[9] = test system: M. avium (ATCC 25291); settings: compound 1 included as reference; ref [26],[27],[28]; cited from earlier work
[10] = test system: M. tuberculosis H37Rv; assay: Fractional inhibitory concentration (FIC), checkerboard with standard of care drugs; assay type: cell-based, Mycobacterium tuberculosis
[11] = ATCC19977, read-out: MIC (µM) M. abscessus 19977
[12] = ATCC700, THP-1, read-out: M. avium Ex Vivo Efficacy (>90% Inhibition µM)
[13] = ATCC19977, THP-1, read-out: M. abscessus Ex Vivo Efficacy (>90% Inhibition µM)
[14] = ATCC19977, NTM strain, read-out: MIC (µM) M. abscessus 19977
[15] = ATCC700, infected THP-1 macrophages, concentration for >90% inhibition, read-out: M. avium Ex Vivo Efficacy (>90% Inhibition µM)
[16] = ATCC19977, infected THP-1 macrophages, concentration for >90% inhibition, read-out: M. abscessus Ex Vivo Efficacy (>90% Inhibition µM)

C=C(C)[C@@H]1CC[C@]2(C(=O)NC(CO)Cc3ccccc3)CC[C@]3(C)[C@H](CC[C@@H]4[C@@]5(C)CCCNC(C)(C)[C@@H]5CC[C@]43C)[C@@H]12 (stereo partly drawn) [Compound 8]
MIC [1]: 8 µM (≈ 4.71 µg/mL) | MIC [2, 11]: 32 µM (≈ 18.8 µg/mL) | MIC [3]: 4 µM (≈ 2.36 µg/mL) | IC90 [4, 12]: 16 µM | IC90 [5, 13]: > 128 µM

CC1(C)CCC23CCC4(C)C(CCC5C6(C)CCCNC(C)(C)C6CCC54C)C2C1OC3 (stereo not drawn) [Compound 17]
MIC [1]: 16 µM (≈ 7.07 µg/mL) | MIC [2, 14]: 16 µM (≈ 7.07 µg/mL) | MIC [3]: 0.5 µM (≈ 0.221 µg/mL) | IC90 [4, 15]: > 128 µM | IC90 [5, 16]: > 128 µM

C#CCNC(=O)[C@]12CC[C@@H](C(=C)C)[C@@H]1[C@H]1CC[C@@H]3[C@@]4(C)CCCNC(C)(C)[C@@H]4CC[C@@]3(C)[C@]1(C)CC2 [Compound 20, 17-(Propargyl)-3-deoxo-3a-homo-3a-aza-lup-20(29)-en-carboxamide]
MIC [1]: ≤ 4 µM | MIC [2, 14]: 16 µM (≈ 7.88 µg/mL) | MIC [3]: 4 µM (≈ 1.97 µg/mL)

C=C(C)[C@@H]1CC[C@]2(COC(C)=O)CC[C@]3(C)[C@H](CC[C@@H]4[C@@]5(C)CCCN(C(C)=O)C(C)(C)[C@@H]5CC[C@]43C)[C@@H]12 [Compound 11]
MIC [1]: 8 µM (≈ 4.21 µg/mL) | MIC [2, 14]: 16 µM (≈ 8.41 µg/mL) | MIC [3]: 4 µM (≈ 2.1 µg/mL)

C=C(C)[C@@H]1CC[C@]2(C(=O)NC3CCCCC3)CC[C@]3(C)[C@H](CC[C@@H]4[C@@]5(C)CCCNC(C)(C)[C@@H]5CC[C@]43C)[C@@H]12 [Compound 10]
MIC [1]: ≤ 4 µM | MIC [2, 11]: 8 µM (≈ 4.3 µg/mL) | MIC [3]: 2 µM (≈ 1.07 µg/mL) | IC90 [4, 12]: 64 µM | IC90 [5, 13]: > 128 µM

C=C(C)[C@@H]1CC[C@]2(COC(C)=O)CC[C@]3(C)[C@H](CC[C@@H]4[C@@]5(C)CCCN(C(=O)c6cccnc6)C(C)(C)[C@@H]5CC[C@]43C)[C@@H]12 [Compound 12]
MIC [1]: 32 µM (≈ 18.8 µg/mL) | MIC [2, 14]: 8 µM (≈ 4.71 µg/mL) | MIC [3]: 4 µM (≈ 2.36 µg/mL)

O=[N+]([O-])c1cn2c(n1)OC[C@@H](OCc1ccc(OC(F)(F)F)cc1)C2 [Pretomanid, reference compound]
MIC [1]: 0.125 µM (≈ 0.0449 µg/mL)

COc1c(N2C[C@@H]3CCCN[C@@H]3C2)c(F)cc2c(=O)c(C(=O)O)cn(C3CC3)c12 [Moxifloxacin, reference compound]
MIC [1]: 0.06 µM (≈ 0.0241 µg/mL)

C=C(C)[C@@H]1CC[C@]2(COS(=O)(=O)c3ccc(C)cc3)CC[C@]3(C)[C@H](CC[C@@H]4[C@@]5(C)CCCNC(C)(C)[C@@H]5CC[C@]43C)[C@@H]12 [Compound 6]
MIC [1]: 8 µM (≈ 4.77 µg/mL) | MIC [2, 11]: 8 µM (≈ 4.77 µg/mL) | MIC [3]: 1 µM (≈ 0.596 µg/mL)

C=C(C)[C@@H]1CC[C@]2(CO)CC[C@]3(C)[C@H](CC[C@@H]4[C@@]5(C)CCCNC(C)(C)[C@@H]5CC[C@]43C)[C@@H]12 [Compound 1, azepanobetulin]
IC90 [4, 15]: 8 µM | IC90 [5, 16]: > 128 µM | MIC (µM) H37Rv [6]: 4 * µM | MIC (µM) H37Rv (katG^del) [7]: 2 * µM | MIC (µM) M. abscessus 19977 [8]: 8 * µM | MIC (µM) M. avium 25291 [9]: 0.125 µM and 0.125 * µM

NNC(=O)c1ccncc1 [Isoniazid, reference compound]
MIC [1]: 0.03 µM (≈ 0.00411 µg/mL)

C=C(C)[C@@H]1CC[C@]2(CN)CC[C@]3(C)[C@H](CC[C@@H]4[C@@]5(C)CCCNC(C)(C)[C@@H]5CC[C@]43C)[C@@H]12 [Compound 3]
MIC [1]: 8 µM (≈ 3.53 µg/mL) | MIC [2, 11]: 16 µM (≈ 7.05 µg/mL) | MIC [3]: 2 µM (≈ 0.882 µg/mL) | IC90 [4, 12]: > 128 µM | IC90 [5, 13]: > 128 µM | FIC interpretation with Isoniazid [10]: 1.0 Additive (key: FIC VALUE ≤ 0.5 (Synergistic); 0.5–1.0 (Additive); 1.0–4.0 (Indifferent); > 4.0 (Antagonistic)) | FIC interpretation with Rifampin [10]: 1.0 Additive (key: FIC VALUE ≤ 0.5 (Synergistic); 0.5–1.0 (Additive); 1.0–4.0 (Indifferent); > 4.0 (Antagonistic)) | FIC value with Ethambutol [10]: 1.5 Indifferent | FIC value with Isoniazid [10]: 1.0 Additive | FIC value with Rifampin [10]: 1.0 Additive

C=C(C)[C@@H]1CC[C@]2(C)CC[C@]3(C)[C@H](CC[C@@H]4[C@@]5(C)CCCNC(C)(C)[C@@H]5CC[C@]43C)[C@@H]12 [Compound 2, azepano-lupeol]
MIC [1]: ≤ 4 µM | MIC [2, 14]: ≤ 4 µM | MIC [3]: 1 µM (≈ 0.426 µg/mL) | IC90 [4, 15]: > 128 µM | IC90 [5, 16]: > 128 µM

Reference: paper PMC8621456, “New Investigations with Lupane Type A-Ring Azepane Triterpenoids for Antimycobacterial Drug Candidate Design” (International Journal of Molecular Sciences, 2021)
